Like-named read-outs stand apart in the source and are kept apart here.
Experiments:
[1] = Pharmacokinetic and bioavailability study of KD in beagle dogs (intravenous and oral); type: in vivo, beagle dog; conditions: for Tmax / AUC(0-t): beagle; for k el: read-out: λz (converted)
Text: The validated method was applied to a preclinical pharmacokinetic and bioavailability study of KD in beagle dogs following intravenous and oral administration. The study protocol (Project ID: HUST-D-201802004) was approved on 5 March 2018 by the Animal Ethics Committee in Tongji Medical College, Huazhong University of Science and Technology (Wuhan, China). Six beagle dogs (3 males and 3 females) weighing 10.0 ± 2.0 kg were purchased from Ruikesen Experimental Animal Co., Ltd. (Wuhan, China). All dogs were individually housed at a temperature of 25 °C and 50% relative humidity under a 12 h light/dark cycle. A laboratory standard diet and water were provided ad libitum. After overnight fasting with unlimited access to water, the six beagle dogs were randomly divided into two groups. One group was intravenously injected via lateral saphenous vein with 3 mg/kg KD, while the other group was given a single oral dose of 3 mg/kg KD. After a 7-day washout period, each group received the other treatment. For intravenous administration, blood samples (approximately 1 mL) were collected via cephalic vein into 3 mL K2EDTA-containing vacutainer tubes at pre-dose and at 0.083, 0.25, 0.5, 0.75, 1, 1.25, 1.5, 2, 2.5, 3, 4, and 5 h after administration. For oral administration, blood samples (approximately 1 mL) were collected at pre-dose and at 0.25, 0.5, 0.75, 1, 1.25, 1.5, 2, 2.5, 3, 4, 5, 6, and 7 h post-dose. Blood samples were maintained on wet ice and centrifuged under 4 °C at 3500 × g for 5 min to obtain plasma. Plasma samples were immediately transferred to pre-cooled plastic Eppendorf tubes and stored at −80 °C until analyzed.
The pharmacokinetic parameters were calculated using noncompartmental analysis by Phoenix WinNonlin software (Version 6.4, Pharsight Corporation, Princeton, NC, USA). The maximum plasma concentration (Cmax) and time to reach Cmax (Tmax) were obtained directly from the plasma concentration time course. The area under the plasma concentration versus time curve (AUC) from time zero to the last measured time point (AUC0–t) and from time zero to infinity (AUC0–∞) were estimated using the log-linear trapezoidal rule, while the elimination half-life (t1/2), the total body clearance (CL), and the apparent volume of distribution (Vd) were processed by Phoenix WinNonlin software. Oral bioavailability (F) was calculated using the formula F = (AUCpo/AUCiv) × (Doseiv/Dosepo).

[2] = Stability of KD in fresh dog whole blood; type: in vitro ADME, beagle dog
Description: (§1) The stability of KD in fresh dog whole blood and plasma was studied by decreasing pH, lowering temperature, and adding different esterase inhibitors. All experiments were performed in triplicate using three different lots of fresh dog whole blood or plasma. To decrease the pH of the matrixes, 1% formic acid (FA) or 1% AA was individually added to the fresh blank whole blood or plasma with a ratio of 1:9. Likewise, DDVP, NaF, and PMSF were separately added to fresh blank whole blood or plasma to obtain a final concentration of 50 mM. After 5 min pre-incubation, KD was spiked with pretreated whole blood or plasma to obtain final concentrations of 15, 150, and 1500 ng/mL. The whole blood mixture was maintained at room temperature or on wet ice for 2 h except for samples of time zero, which were centrifuged immediately to collect plasma, while the plasma mixture was maintained at room temperature or on wet ice for 0, 2, and 6 h. Then, the obtained plasma samples were cleaned up using the previously mentioned sample preparation procedures. The remaining percentage of KD was calculated by dividing the plasma concentration of KD under different incubation conditions by the concentration of time zero samples [13].

[3] = Stability of KD in fresh dog plasma; type: in vitro ADME, beagle dog
Description: as §1

[4] = Method-validation stability of kinsenoside in beagle dog plasma under various storage conditions; type: in vitro ADME
Description: The stability of stock solutions (2.5 mg/mL for KD and 1 mg/mL for IS) and working solutions (125 and 50,000 ng/mL for KD and 500 ng/mL for IS) was evaluated at room temperature for 6 h and at −80 °C for 31 days. The matrix stability was evaluated from three replicates of each QC sample stored in different conditions using freshly prepared calibration standards. The QC samples were analyzed after storage on wet ice for 2 h (short-term stability) and at −80 °C for 21 days (long-term stability). The freeze–thaw stability was determined after freezing at −80 °C and thawing on wet ice for three cycles. To evaluate the post-preparative stability, QC samples were analyzed after being held in the autosampler for 24 h at 4 °C. The samples for stability evaluation were considered stable if the deviation was within ±15% of the nominal concentration.

[5] = system: liver microsomal enzyme; parameters: method as in doi:10.5478/MSL.2015.6.2.48; conditions: cited from earlier work
[6] = parameters: method as in PMID 26686829; conditions: cited from earlier work
[7] = both sexes, dog, plasma, beagle dogs, intravenous, 3 mg/kg
[8] = both sexes, dog, plasma, beagle dogs, oral, 3 mg/kg
[9] = plasma samples after three freeze–thaw cycles, nominal 15 ng/mL
[10] = plasma samples after three freeze–thaw cycles, nominal 150 ng/mL
[11] = plasma samples after three freeze–thaw cycles, nominal 1500 ng/mL
[12] = plasma samples on wet ice for 2 h, nominal 15 ng/mL
[13] = plasma samples on wet ice for 2 h, nominal 150 ng/mL
[14] = plasma samples on wet ice for 2 h, nominal 1500 ng/mL
[15] = plasma samples stored at −80 °C for 21 days, nominal 15 ng/mL
[16] = plasma samples stored at −80 °C for 21 days, nominal 150 ng/mL
[17] = plasma samples stored at −80 °C for 21 days, nominal 1500 ng/mL
[18] = post-preparative samples stored at 4 °C for 24 h, nominal 15 ng/mL
[19] = post-preparative samples stored at 4 °C for 24 h, nominal 150 ng/mL
[20] = post-preparative samples stored at 4 °C for 24 h, nominal 1500 ng/mL

O=C1C[C@@H](O[C@@H]2O[C@H](CO)[C@@H](O)[C@H](O)[C@H]2O)CO1 [kinsenoside, Kinsenoside]
Tmax ([1]; both sexes, dog, plasma, iv, 3 mg/kg, beagle dogs): 5 min | AUC(0-t) ([1]; both sexes, dog, plasma, iv, 3 mg/kg, beagle dogs, intravenous, 3 mg/kg, read-out: AUC0–t): 6.82 ± 0.295 µg·h/mL | AUC(0-t) ([1]; both sexes, dog, plasma, iv, 3 mg/kg, beagle dogs, intravenous, 3 mg/kg, read-out: mean AUC0-t (converted)): 0.114 µg·h/mL | Tmax ([1]; both sexes, dog, plasma, po, 3 mg/kg, beagle dogs): ~62.4 min | AUC(0-t) ([1]; both sexes, dog, plasma, po, 3 mg/kg, beagle dogs, oral, 3 mg/kg, read-out: AUC0–t): 1.88 ± 0.0176 µg·h/mL | AUC(0-t) ([1]; both sexes, dog, plasma, po, 3 mg/kg, beagle dogs, oral, 3 mg/kg, read-out: mean AUC0-t (converted)): 0.0313 µg·h/mL | AUC(0-inf) [1, 7]: 6.83 ± 0.295 µg·h/mL | Cmax [1, 7]: 11.4 µg/mL | Vd [1, 7]: 0.3 ± 0.0171 L/kg | clearance [1, 7]: 0.44 L/h/kg | half-life [1, 7]: 28.2 ± 0.78 min | k el [1, 7]: 0.000408 s⁻¹ | bioavailability ([1]; both sexes, dog, plasma, beagle dogs, oral 3 mg/kg vs intravenous 3 mg/kg, read-out: Bioavailability (absolute oral)): 27.6% | AUC(0-inf) [1, 8]: 1.91 ± 0.0425 µg·h/mL | Cmax [1, 8]: 0.965 ± 0.0597 µg/mL | half-life [1, 8]: 54.9 ± 5.64 min | k el [1, 8]: 0.000212 s⁻¹ | bioavailability of KD relative to the majority of extensively researched isoflavone glycosides ([1]; comparison with literature values): at least 4 fold | KD remaining ([2]; 2 h incubation at room temperature): 60% | KD remaining ([2]; 2 h incubation on wet ice, three concentration levels (15, 150, 1500 ng/mL)): around 90% | KD remaining ([3]; dog plasma, 2 h incubation on wet ice): more than 90% | percentage remaining of KD ([3]; neutral and acidified dog plasma, 6 h incubation on wet ice): around 85% | Accuracy (stability, % of nominal) [4, 9]: 89.53% | Calculated Conc. [4, 9]: 13.43 ± 0.46 ng/mL | Accuracy (stability, % of nominal) [4, 10]: 90.89% | Calculated Conc. [4, 10]: 136.33 ± 4.50 ng/mL | Accuracy (stability, % of nominal) [4, 11]: 92.44% | Calculated Conc. [4, 11]: 1386.67 ± 24.94 ng/mL | Accuracy (stability, % of nominal) [4, 12]: 95.11% | Calculated Conc. [4, 12]: 14.27 ± 0.74 ng/mL | Accuracy (stability, % of nominal) [4, 13]: 93.87% | Calculated Conc. [4, 13]: 140.80 ± 2.98 ng/mL | Accuracy (stability, % of nominal) [4, 14]: 91.61% | Calculated Conc. [4, 14]: 1374.13 ± 24.63 ng/mL | Accuracy (stability, % of nominal) [4, 15]: 90.89% | Calculated Conc. [4, 15]: 13.63 ± 0.36 ng/mL | Accuracy (stability, % of nominal) [4, 16]: 91.78% | Calculated Conc. [4, 16]: 137.67 ± 2.62 ng/mL | Accuracy (stability, % of nominal) [4, 17]: 93.78% | Calculated Conc. [4, 17]: 1406.67 ± 26.25 ng/mL | Accuracy (stability, % of nominal) [4, 18]: 89.47% | Calculated Conc. [4, 18]: 13.42 ± 0.37 ng/mL | Accuracy (stability, % of nominal) [4, 19]: 91.67% | Calculated Conc. [4, 19]: 137.50 ± 4.99 ng/mL | Accuracy (stability, % of nominal) [4, 20]: 88.89% | Calculated Conc. [4, 20]: 1333.33 ± 34.60 ng/mL | stability against liver microsomal enzyme-associated metabolism [5]: stable | stability in rat plasma (ex vivo) [6]: unstable

Reference: PMC6161302, “Oral Bioavailability of Kinsenoside in Beagle Dogs Measured by LC-MS/MS: Improvement of Ex Vivo Stability of a Lactone-Containing Compound” (Pharmaceutics, 2018)
